According to PubChem BioAssay (NCI):
“And” between values parts separate entries of the source, which are not always exact repeats. Equal entries are not always repeated.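 Grown in 96-well plates, cells were treated for 48 hours with each compound at five concentrations. Insufficient inhibition: endpoint recorded as highest concentration tested. Abbreviation: GI50, concentration required for 50% inhibition of growth. TGI denotes the concentration required for complete inhibition of growth.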

Assays:
Assay in all cases: NCI anticancer screen, dose series, 48 h
HCT-116 colon = system: HCT-116 colon
HT29 colon = system: HT29 colon
MALME-3M melanoma = system: MALME-3M melanoma
NCI-H522 lung = system: NCI-H522 lung
SK-OV-3 ovarian = system: SK-OV-3 ovarian
U251 CNS = system: U251 CNS

SMILES	TGI (HCT-116 colon)	TGI (HT29 colon)	TGI (MALME-3M melanoma)	TGI (NCI-H522 lung)	TGI (SK-OV-3 ovarian)	TGI (U251 CNS)	GI50 (MALME-3M melanoma) [nM]	GI50 (NCI-H522 lung) [nM]	GI50 (U251 CNS) [nM]
CC(C)(C)/C(O)=C\c1nc2cc(C(F)(F)F)ccc2[nH]c1=O	> 100 µM	> 100 µM	> 100 µM	> 100 µM	> 100 µM	> 100 µM	–	–	–
CO[C@H]1O[C@@H]2CO[C@@H](c3ccccc3)O[C@H]2C[C@]12CCC/C=C\CO2	23.5 µM	40.5 µM	26.4 µM	23.6 µM	> 75 µM	23.5 µM	–	–	–
CC/C(Cl)=N\OC(=O)Nc1ccc(C#N)cc1	28.1 µM	36.9 µM	8.25 µM	2.82 µM	22.3 µM	30.8 µM	–	–	–
O=C(CCN1CCCC1)Nc1ccc2c(NCCCc3ccccc3)c3ccccc3nc2c1	–	–	3.12 µM	2.15 µM	–	2.36 µM	1580	664	1040
CC(C)[Si]1(C(C)C)OCC2OC(n3ccc(=O)[nH]c3=O)C(O)(CO)C2O[Si](C(C)C)(C(C)C)O1 (configuration not stated)	27.7 µM	28.7 µM	28.4 µM	–	30.2 µM	30.1 µM	–	–	–
O=[N+]([O-])C1(C2([N+](=O)[O-])CCCC2)CCCC1	> 100 µM	> 100 µM	> 100 µM	> 100 µM	> 100 µM	> 100 µM	–	–	–
O=C(O)c1ccccc1/C=N\NC1=NCCN1	> 100 µM	> 100 µM	> 100 µM	> 100 µM	> 100 µM	> 100 µM	–	–	–
C[N+]1(C)CN(c2ccccc2)C2(CCN(CCCC(=O)c3cccs3)CC2)C1=O	> 100 µM	> 100 µM	> 100 µM	> 100 µM	> 100 µM	> 100 µM	–	–	–
CC1OC(=O)c2ccccc2NC1=O (configuration not stated)	> 100 µM	> 100 µM	> 100 µM	> 100 µM	> 100 µM	> 100 µM	–	–	–
CCCc1c2c3ccccc3nc-2nc2ccccn12	–	> 100 µM	> 100 µM	> 100 µM	> 100 µM	> 100 µM	–	–	–
N#Cc1c(-c2ccc(Cl)cc2)c(C#N)c(=O)n(NS(=O)(=O)c2ccccc2)c1-c1ccccc1	> 25 µM	–	–	–	> 25 µM	> 25 µM	–	–	–
O=C(O)CCC1(c2ccccc2)NC(=O)NC1=O (configuration not stated)	> 100 µM	> 100 µM	> 100 µM	> 100 µM	> 100 µM	> 100 µM	–	–	–
O/N=C\c1cc(O)c(O)c(/C=N/O)c1	> 100 µM	> 100 µM	> 100 µM	71.9 µM	> 100 µM	> 100 µM	–	–	–
Cc1cc2c(-c3ccccc3)cc(=O)[nH]c2cc1N	> 100 µM	> 100 µM	–	–	–	> 100 µM	–	–	–
Nc1ncc(Cc2nc3ccccc3s2)s1	> 100 µM	> 100 µM	> 100 µM	> 100 µM	> 100 µM	> 100 µM	–	–	–
N#Cc1c(C#N)c(SSc2c(C#N)c(C#N)c(N)n2-c2ccccc2)n(-c2ccccc2)c1N	–	> 59.1 µM	3.26 µM	> 100 µM	37.5 µM	42.4 µM	–	–	–
Cc1nc2c(-c3ccccc3)[nH]c(C)c2c(=O)o1	> 100 µM	> 100 µM	–	> 100 µM	> 100 µM	> 100 µM	–	–	–
CC(Cc1ccc(O)c(O)c1)C(C)Cc1ccc(O)c(O)c1 (configuration not stated)	34.2 µM	51.5 µM	29.5 µM	4.91 µM	84 µM	38.9 µM	–	–	–
O=C1OC(CN2CCN(c3ccccc3)CC2)CN1C(=S)Nc1ccccc1 (configuration not stated)	> 100 µM	> 100 µM	> 100 µM	> 100 µM	> 100 µM	> 100 µM	–	–	–
COc1cc2c(cc1OC)CCN=C2	> 100 µM	> 100 µM	> 100 µM	–	> 100 µM	> 100 µM	–	–	–
Cn1c(=O)n(CC(Br)CBr)c(=O)n(CC(Br)CBr)c1=O (configuration not stated)	79.3 µM	54.6 µM	> 100 µM	> 100 µM	> 100 µM	> 100 µM	–	–	–
COC(=O)C1=C(C)NC(C)=C([N+](=O)[O-])C1c1cccc(NO)c1 (configuration not stated)	10.5 µM	9.79 µM	22.9 µM	13.9 µM	> 85.6 µM	> 100 µM	–	–	–
C=CCn1c(=O)c(C)cn(/C(=C/C(=O)OCC)C(=O)OCC)c1=O	21.5 µM	25.8 µM	29.2 µM	10.9 µM	> 100 µM	28.4 µM	–	–	–
COC(=O)C1=C(O)C(C(=O)OC)[C@]2(O)[C@H](C(=O)OC)[C@H]1C[C@@H](c1ccc(OC)cc1)[C@H]2C(=O)OC (some centres not stated)	38.5 µM	97.7 µM	> 100 µM	17.7 µM	65.5 µM	65.6 µM	–	–	–

SMILES	TGI (HCT-116 colon)	TGI (HT29 colon)	TGI (MALME-3M melanoma)	TGI (NCI-H522 lung)	TGI (SK-OV-3 ovarian)	TGI (U251 CNS)	GI50 (MALME-3M melanoma) [nM]	GI50 (NCI-H522 lung) [nM]	GI50 (U251 CNS) [nM]
Cc1n[nH]c(=O)n1N=C(c1ccccc1)c1ccccc1	> 100 µM	> 100 µM	> 100 µM	> 100 µM	–	> 100 µM	–	–	–
CC1(C)CCc2c(c(N=Nc3ccccc3)c3ccccc3c2O)O1	51.2 µM	34 µM	> 100 µM	> 100 µM	50.3 µM	61.3 µM	–	–	–
Cc1ccc(S(=O)(=O)N/N=C2\C=C[C@]3(CC2)C(=O)N(C)c2ccccc23)cc1	> 100 µM	–	–	–	> 100 µM	> 100 µM	–	–	–
CSCCCCCCCCCCOc1ccc(C=C2C(=C(C#N)C#N)c3ccccc3C2=C(C#N)C#N)cc1	34.2 µM	31 µM	–	38.2 µM	32.1 µM	31.2 µM	–	–	–
Cc1ccc(C2=Nc3c(N)nc(N)nc3NC(c3ccccc3)C2)cc1 (configuration not stated)	17.5 µM and 17.6 µM	14.1 µM and 14.8 µM	23.6 µM and 24.5 µM	16 µM and 30.9 µM	27.1 µM and 27.6 µM	24.6 µM and 26.4 µM	–	–	–
COc1ccc(NC2=NCCO2)c2ccccc12	> 10 µM	> 10 µM	> 10 µM	> 10 µM	> 10 µM	–	–	–	–
CC1(C)CC(=O)c2c(nc3ccc4ccccc4c3c2-c2ccc(NC(=O)CCCCC(=O)Nc3ccc(-c4c5c(nc6ccc7ccccc7c46)CC(C)(C)CC5=O)cc3)cc2)C1	> 100 µM	> 100 µM	–	–	> 100 µM	> 100 µM	–	–	–
S=C1C=C(c2ccccc2)Sc2ccccc2N1	> 100 µM	> 100 µM	> 100 µM	> 100 µM	> 100 µM	> 100 µM	–	–	–
CCOC(=O)c1c(SCCO)n(-c2ccccc2)c(=S)n(-c2ccccc2)c1=O	> 100 µM	> 100 µM	> 100 µM	> 100 µM	> 100 µM	> 100 µM	–	–	–
COC/C=C\[C@@]1(O)CCCC[C@@H]1CC(OC)OC	> 62.7 µM	> 100 µM	> 100 µM	38.4 µM	> 100 µM	> 100 µM	–	–	–
CCCCCCCCCN1CCC(=O)C(C(=O)OC)C1 (configuration not stated)	26.9 µM	22.7 µM	–	22 µM	31.1 µM	–	–	–	–
NNC(=O)c1n[nH]nc1SSc1n[nH]nc1C(=O)NN	> 100 µM	> 100 µM	–	> 100 µM	> 100 µM	> 100 µM	–	–	–
CCOC(=O)c1nc2cc(C(F)(F)F)ccc2nc1Nc1ccc(Cl)c(Cl)c1	> 100 µM	> 100 µM	> 100 µM	> 100 µM	> 100 µM	> 100 µM	–	–	–
Fc1ccc(C(OCCN2CCC3CCC(C2)N3Cc2cc3ccccc3[nH]2)c2ccc(F)cc2)cc1 (configuration not stated)	2.6 µM	2.49 µM	2.96 µM	2.84 µM	5.69 µM	3.42 µM	–	–	–
Nc1c(C(=O)c2ccccc2)[nH]c(NCc2ccccc2)c1C(=S)Nc1ccccc1	> 100 µM	> 100 µM	> 100 µM	> 100 µM	> 100 µM	> 100 µM	–	–	–
Clc1nc2c(-c3cccs3)ncnc2n1Cc1ccccc1	> 100 µM	> 100 µM	> 100 µM	> 100 µM	> 95.4 µM	> 100 µM	–	–	–
COc1ccc(C)cc1NC(=S)N/N=C/c1ccc(SC)cc1	> 100 µM	> 100 µM	> 100 µM	> 100 µM	91.4 µM	–	–	–	–
C[C@@H]1C(O)CC[C@H](C)C12CC=CC2=O (some centres not stated)	> 100 µM	> 100 µM	> 100 µM	> 100 µM	> 100 µM	> 100 µM	–	–	–
COc1nc(=O)n(C2CC(N=[N+]=[N-])C(CO)O2)cc1C (configuration not stated)	> 100 µM	> 100 µM	> 100 µM	> 100 µM	–	> 100 µM	–	–	–
C[C@@H]1CCC2[C@@H](C)C(=O)O[C@@H]3C4C[C@@H]1[C@@]23OO[C@@]4(C)O (some centres not stated)	> 100 µM	> 100 µM	> 100 µM	> 100 µM	–	> 100 µM	–	–	–
CSC(=NCCN=C(NS(=O)(=O)c1ccc(Cl)cc1)SC)NS(=O)(=O)c1ccc(Cl)cc1	> 100 µM	> 100 µM	> 100 µM	–	59.1 µM	42.6 µM	–	–	–
CC(=O)c1cn(-c2ccc(Cl)cc2)c(=O)c2c(N)n[nH]c12	> 100 µM	> 100 µM	–	–	> 100 µM	> 100 µM	–	–	–
CC12ON=C(c3ccccc3)N1C=CN1C(c3ccccc3)=NOC12 (configuration not stated)	> 100 µM	–	> 100 µM	> 100 µM	> 100 µM	–	–	–	–
NC(=O)N(O)c1cccc(Br)c1	> 100 µM	> 100 µM	–	> 100 µM	> 100 µM	> 100 µM	–	–	–
